From patent publication US20100251436A1, “METHOD FOR GROWING SUGARCANE” (SYNGENTA CROP PROTECTION, INC., priority 2007, published 2010)

Tested on: sugar cane Variety RB 86-7515
Test: Greenhouse pot test of formulated agrochemicals on vigour (tillers, plant height, leaf width, culm diameter)
Settings: for number of tillers in comparison with the control / plant height in comparison with the control: greenhouse, rate of the respective example
Text: 1) carretel with one bud treated with abamectin 2) carretel with one bud treated with abamectin+15% v/v of polymer 3) stalk with 3 buds untreated 4) carretel with one bud untreated 5) carretel with one bud untreated+15% v/v of polymer 6) stalk with 3 buds treated with abamectin.
Twenty 1 L pots were filled with 16 L of clay soil, 1.6 L of sand and 8 g of nitrogen, 28 g of phosphorus (P2O5) and 16 g of potassium (K2O). Six carretels of 4 cm length with only one bud were planted in each pot (treatments 1, 2, 4 and 5). Two stalks with three buds were planted in each control pot (treatments 3 and 6) to simulate conventional planting. A layer of 3 cm of soil was used to cover the carretels. […] The stalks were treated simulating a furrow application at 100 L.ha^−1 of slurry. Experimental design adopted was randomized complete block with four replications. The pots were maintained with adequate moisture during the test. Evaluations of: plant height, leaf width, culm diameter and number of tillers were done at 20, 30 and 42 days after planting.

Compound | Tillers (abamectin 100 g ai/ha, carretel with one bud, dipped in slurry 3 min, 42 days after planting) | number of tillers in comparison with the control (result in words) | plant height in comparison with the control (result in words) | increase in "quality" (result in words, not apparent from the measured parameters)
abamectin | 14 number | increase | decrease | –
N#Cc1nn(-c2c(Cl)cc(C(F)(F)F)cc2Cl)c(N)c1[S+]([O-])C(F)(F)F (centres unmarked) [Fipronil, fipronil] | – | increased | decreased | –
O=[N+]([O-])NC1=NCCN1Cc1ccc(Cl)nc1 [Imidacloprid] | – | increase | – | –
CN/C(=N\[N+](=O)[O-])NCc1cnc(Cl)s1 [Clothianidin, clothianidin] | – | increased | slight reduction | –
CN1COCN(Cc2cnc(Cl)s2)/C1=N\[N+](=O)[O-] [Thiamethoxam, thiamethoxam] | – | increased | reduced | greater than the other treatments
